Here are results for 29 compounds from US20240109853A1 (Shanghai Yao Yuan Biotechnology Co., Ltd., priority 2020, published 2024).

For experiment [1], the system named is ALPK1-dependent NFκB reporter gene activation in HEK293 cells stably expressing an NF-kB reporter (G9 cells). Put plainly: NFκB gene reporter alkaline phosphatase assay. It counts as cell-based. Conditions: read-out: NFkB assay IC50. An excerpt: In embodiments, a compound of Formula I, or a subembodiment described herein, is an inhibitor of ALPK1 as measured, for example, in an in vitro kinase assay, or an assay designed to measure the activation of downstream targets of ALPK1 pathway activation, for example NFkB transcriptional activation and the secretion of proinflammatory cytokines and chemokines, such as IL-8, which is also referred to as CXCL-8. In general, the computer program XL fit was used for data analysis, including non-linear regression analysis. The half maximal inhibitory concentration (IC50) was used as the measure of a compound's effectiveness in the assays. IC50 values were determined using the following logistic equation Y=min+(max−min)/(1+(X/IC50^−hillslpoe), where Y is the value at the compound concentration, X. The concentration response curve fitting was conducted using GraphPad Prism version 6.00 software.
An alkaline phosphatase reporter assay system was used to measure inhibition of ALPK1-dependent NFκB reporter gene activation. Briefly, HEK293 cells stably expressing an NF-kB reporter (referred to herein as “G9 cells”) were maintained in DMEM as described above. For the assay, cells were seeded into 96-well plates at a density of 10,000 cells/well in Freestyle™ 293 Expression Medium (ThermoFisher), and allowed to attach overnight. Cells were pretreated with serially diluted compounds for 30 min and then stimulated with D-glycero-D-manno-6-fluoro-heptose-1β-S-ADP. […] NFkB gene activation was detected using the chromogenic substrate, para-nitrophenyl phosphate (pNPP) according to the manufacturer's protocols (pNPP Phosphatase Assay, Beyotime Biotechnology).

The next experiment addresses ALPK1 (Homo sapiens (Human), UniProt Q96QP1). Put plainly: ALPK1 in vitro kinase assay (HTRF of TIFA phosphorylation). The format is biochemical. (In general: Time-resolved FRET reads energy transfer from a long-lived donor to a nearby acceptor.)

For orientation: IC50 means the concentration at which inhibition is half-maximal.

SMILES strings stand for the structures. Read-outs that look alike come from different tables or passages of the source.

ALPK1, sequence (Q96QP1 whole entry): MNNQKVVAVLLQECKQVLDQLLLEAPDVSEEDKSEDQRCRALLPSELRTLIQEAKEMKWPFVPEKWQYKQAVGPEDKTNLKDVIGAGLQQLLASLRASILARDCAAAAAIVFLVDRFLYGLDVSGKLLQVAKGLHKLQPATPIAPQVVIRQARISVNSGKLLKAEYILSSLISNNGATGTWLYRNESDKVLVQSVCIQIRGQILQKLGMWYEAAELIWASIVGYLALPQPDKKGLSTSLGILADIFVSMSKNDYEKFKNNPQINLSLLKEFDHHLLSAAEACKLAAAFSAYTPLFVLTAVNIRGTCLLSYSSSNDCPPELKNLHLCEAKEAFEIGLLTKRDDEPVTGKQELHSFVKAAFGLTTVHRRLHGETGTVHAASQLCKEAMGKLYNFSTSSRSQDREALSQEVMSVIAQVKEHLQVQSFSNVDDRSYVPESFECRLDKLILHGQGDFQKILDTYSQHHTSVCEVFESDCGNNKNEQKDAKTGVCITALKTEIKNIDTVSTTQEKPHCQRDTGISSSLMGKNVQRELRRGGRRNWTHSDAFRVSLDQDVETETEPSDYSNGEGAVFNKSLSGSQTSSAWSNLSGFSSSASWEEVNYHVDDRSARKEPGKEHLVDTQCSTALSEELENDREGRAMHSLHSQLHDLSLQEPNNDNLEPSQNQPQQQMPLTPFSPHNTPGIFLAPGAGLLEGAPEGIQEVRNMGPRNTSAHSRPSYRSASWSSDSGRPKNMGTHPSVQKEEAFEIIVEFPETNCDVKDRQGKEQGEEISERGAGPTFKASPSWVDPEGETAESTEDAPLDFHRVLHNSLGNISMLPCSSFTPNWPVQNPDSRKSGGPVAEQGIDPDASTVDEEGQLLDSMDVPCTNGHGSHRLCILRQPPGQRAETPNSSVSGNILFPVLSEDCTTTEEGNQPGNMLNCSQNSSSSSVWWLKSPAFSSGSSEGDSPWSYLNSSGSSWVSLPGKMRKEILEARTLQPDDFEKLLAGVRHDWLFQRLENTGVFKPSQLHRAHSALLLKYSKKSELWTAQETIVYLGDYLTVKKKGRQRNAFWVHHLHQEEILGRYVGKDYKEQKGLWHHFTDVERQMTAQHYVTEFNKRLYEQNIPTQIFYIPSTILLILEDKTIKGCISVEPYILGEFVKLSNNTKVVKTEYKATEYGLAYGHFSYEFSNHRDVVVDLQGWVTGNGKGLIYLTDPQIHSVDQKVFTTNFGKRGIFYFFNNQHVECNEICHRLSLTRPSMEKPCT

With `COc1cc(CNC(=O)Nc2nc(C(C)(C)c3ccc(Br)cc3)cs2)ccc1N1CCNCC1` [Example A220, 1-(4-(2-(4-bromophenyl)propan-2-yl)thiazol-2-yl)-3-(3-methoxy-4-(piperazin-1-yl)benzyl)urea], the IC50 in experiment [1] (Homo sapiens, HEK293) stood at 1320 nM; against ALPK1 it was 44 nM.
Take `COc1ccc(C(C)(C)c2csc(NC(=O)NCc3ccc(N4CCC(N)C4)cn3)n2)cc1` (stereo not shown) [Example A200, 1-((5-(3-aminopyrrolidin-1-yl)pyridin-2-yl)methyl)-3-(4-(2-(4-methoxyphenyl)propan-2-yl)thiazol-2-yl)urea]: the half-inhibitory concentration (IC50) in experiment [1] (Homo sapiens, HEK293) came out at 520 nM; against ALPK1 it was 43 nM.
As to `COc1ccc(C(C)(C)c2csc(NC(=O)NCCCCO)n2)cc1` [Example A128, 1-(4-hydroxybutyl)-3-(4-(2-(4-methoxyphenyl)propan-2-yl)thiazol-2-yl)urea], the IC50 in experiment [1] (Homo sapiens, HEK293) was 530 nM; against ALPK1, 146 nM.
Take `C#C[C@@](C)(c1ccc(Cl)cc1)c1csc(NC(=O)NCC2(O)CNC2)n1` (stereo in doubt) [Example A287, 1-(4-(2-(4-chlorophenyl)but-3-yn-2-yl)thiazol-2-yl)-3-((3-hydroxyazetidin-3-yl)methyl)urea]: the IC50 was 4400 nM in experiment [1] (Homo sapiens, HEK293) and 130 nM against ALPK1.
Regarding `C#CC(C)(c1ccc(Cl)cc1)c1csc(NC(=O)N2CCC(CO)C2)n1` (stereo not shown) [Example A270, N-(4-(2-(4-chlorophenyl)but-3-yn-2-yl)thiazol-2-yl)-3-(hydroxymethyl)pyrroli-dine-1-carboxamide], the IC50 in experiment [1] (Homo sapiens, HEK293) was found to be 1970 nM; at ALPK1, 904 nM.
As for `COc1ccc(C(C)(C)c2csc(NC(=O)NCC3CC(N)C3)n2)cc1` (stereo not shown) [Example A190, 1-((3-aminocyclobutyl)methyl)-3-(4-(2-(4-methoxyphenyl)propan-2-yl)thiazol-2-yl)urea], the IC50 in experiment [1] (Homo sapiens, HEK293) is 3020 nM; on ALPK1, 458 nM.
With `CC(C)(c1ccc(Br)cc1)c1csc(NC(=O)NCc2ccc(OCCCN3CCNCC3)cc2)n1` [Example A035, 1-(4-(2-(4-bromophenyl)propan-2-yl)thiazol-2-yl)-3-(4-(3-(piperazin-1-yl)propoxy)benzyl)urea], the IC50 in experiment [1] (Homo sapiens, HEK293) was 2030 nM; on ALPK1 it was 52 nM.
Take `C#CC(C)(c1ccc(Cl)cc1)c1csc(NC(=O)N(CCO)CCO)n1` (stereo not shown) [Example A253, 3-(4-(2-(4-chlorophenyl)but-3-yn-2-yl)thiazol-2-yl)-1,1-bis(2-hydroxyethyl)urea]: the IC50 in experiment [1] (Homo sapiens, HEK293) was 3050 nM; against ALPK1, 172 nM.
For `C#C[C@@](C)(c1ccc(OC)cc1)c1csc(NC(N)=O)n1` [Example A173, (S)-1-(4-(2-(4-methoxyphenyl)but-3-yn-2-yl)thiazol-2-yl)urea], the IC50 is 580 nM in experiment [1] (Homo sapiens, HEK293) and 8 nM against ALPK1.
The like results for `C#C[C@](C)(c1ccc(Cl)cc1)c1csc(NC(=O)NC[C@@H](O)CO)n1` [Example A301, 1-(4-(2-(4-chlorophenyl)but-3-yn-2-yl)thiazol-2-yl)-3-((R)-2,3-dihydroxypropyl)urea] were, in that order, 2220 nM and 354 nM.
Take `CC(C)(c1ccc(Br)cc1)c1csc(NC(=O)NC(CO)c2ccc(N3CCNCC3)cc2)n1` (stereo not shown) [Example A101, 1-(4-(2-(4-bromophenyl)propan-2-yl)thiazol-2-yl)-3-(2-hydroxy-1-(4-(piperazin-1-yl)phenyl)ethyl)urea]: the IC50 in experiment [1] (Homo sapiens, HEK293) came out at 1650 nM; against ALPK1, 50 nM.
In the case of `COc1ccc(C(C)(C)c2csc(NC(=O)NCc3ccc(NCCO)nc3)n2)cc1` [Example A022, 1-((6-((2-hydroxyethyl)amino)pyri-din-3-yl)methyl)-3-(4-(2-(4-methoxyphenyl)propan-2-yl)thiazol-2-yl)urea], the IC50 is 960 nM in experiment [1] and 232 nM at ALPK1.
For the compound `CC(C)(c1ccc(Br)cc1)c1csc(NC(=O)NCCCN2CCC(O)C2)n1` (stereo not shown) [Example A129, 1-(4-(2-(4-bromophenyl)propan-2-yl)thiazol-2-yl)-3-(3-(3-hydroxypyrrolidin-1-yl)propyl)urea], the IC50 in experiment [1] (Homo sapiens, HEK293) was found to be 510 nM; against ALPK1, 40 nM.
Turning to `C#CC(C)(c1ccc(Cl)cc1)c1csc(NC(=O)N2CC(CN3CCNCC3)C2)n1` (stereo not shown) [Example A259, N-(4-(2-(4-chlorophenyl)but-3-yn-2-yl)thiazol-2-yl)-3-(piperazin-1-ylmethyl)azetidine-1-carboxamide], the IC50 in experiment [1] (Homo sapiens, HEK293) is 440 nM; against ALPK1, 48 nM.
With `COc1ccc(C(C)(C)c2csc(NC(=O)NCCCN3CCC(N)C3)n2)cc1` (stereo not shown) [Example A226, 1-(3-(3-aminopyrrolidin-1-yl)propyl)-3-(4-(2-(4-methoxyphenyl)propan-2-yl)thiazol-2-yl)urea], the IC50 stood at 4820 nM in experiment [1] (Homo sapiens, HEK293) and 100 nM against ALPK1.
Take `C#CC(C)(c1ccc(Cl)cc1)c1csc(NC(=O)N2CCC(O)C2)n1` (stereo not shown) [Example A269, N-(4-(2-(4-chlorophenyl)but-3-yn-2-yl)thiazol-2-yl)-3-hydroxypyrrolidine-1-carboxamide]: the IC50 came to 1260 nM in experiment [1] (Homo sapiens, HEK293) and 881 nM against ALPK1.
Regarding `CC(C)(c1ccc(F)cc1)c1csc(NC(=O)NCc2ccc(N3CCNCC3)cc2)n1` [Example A047, 1-(4-(2-(4-fluorophenyl)propan-2-yl)thiazol-2-yl)-3-(4-(piperazin-1-yl)benzyl)urea], the IC50 was 2100 nM in experiment [1] (Homo sapiens, HEK293) and 167 nM on ALPK1.
As for `COc1ccc(C(C)(C)c2csc(NC(=O)NCCc3ccncc3)n2)cc1` [Example A124, 1-(4-(2-(4-methoxyphenyl)propan-2-yl)thiazol-2-yl)-3-(2-(pyridin-4-yl)ethyl)urea], the IC50 was 1050 nM in experiment [1] (Homo sapiens, HEK293) and 165 nM at ALPK1.
On to `C#CC(C)(c1ccc(OC)cc1)c1csc(NC(N)=O)n1` (stereo not shown) [Example A171, 1-(4-(2-(4-methoxyphenyl)but-3-yn-2-yl)thiazol-2-yl)urea], for which the IC50 in experiment [1] (Homo sapiens, HEK293) turned out to be 730 nM; at ALPK1, 16 nM.
The like results for `CC(C)(c1ccc(Br)cc1)c1csc(NC(=O)NCc2cnc(N3CCNCC3)nc2)n1` [Example A088, 1-(4-(2-(4-bromophenyl)propan-2-yl)thiazol-2-yl)-3-((2-(piperazin-1-yl)pyrimidin-5-yl)methyl)urea compound with methane (1:1)] were, in that order, 1450 nM and 13 nM.
The like results for `CC(NC(=O)Nc1nc(C(C)(C)c2ccc(Br)cc2)cs1)c1ccc(N2CCNCC2)cc1` (stereo not shown) [Example A073, 1-(4-(2-(4-bromophenyl)propan-2-yl)thiazol-2-yl)-3-(1-(4-(piperazin-1-yl)phenyl)ethyl)urea] were, in that order, 2790 nM and 85 nM.
Regarding `CC(C)(c1ccc(Cl)c(F)c1)c1csc(NC(=O)NCc2cnc(N3CCNCC3)nc2)n1` [Example A179, 1-(4-(2-(4-chloro-3-fluorophenyl)propan-2-yl)thiazol-2-yl)-3-((2-(piperazin-1-yl)pyrimidin-5-yl)methyl)urea], the half-inhibitory concentration (IC50) was determined as 1360 nM in experiment [1] (Homo sapiens, HEK293) and 95 nM on ALPK1.
In the case of `CCNC(=O)Nc1nc(C(C)(C)c2ccc(Br)cc2)cs1` [Example A241, 1-(4-(2-(4-bromophenyl)propan-2-yl)thiazol-2-yl)-3-ethylurea], the IC50 in experiment [1] (Homo sapiens, HEK293) was 3410 nM; against ALPK1 it was 98 nM.
With `CNS(=O)(=O)CCCNC(=O)Nc1nc(C(C)(C)c2ccc(OC)cc2)cs1` [Example A148, 3-(3-(4-(2-(4-methoxyphenyl)propan-2-yl)thiazol-2-yl)ureido)-N-methylpropane-1-sulfonamide], the IC50 in experiment [1] (Homo sapiens, HEK293) amounted to 850 nM; at ALPK1, 45 nM.
Regarding `CC(C)(c1ccc(Br)cc1)c1csc(NC(=O)NCCN2CCNCC2)n1` [Example A177, 1-(4-(2-(4-bromophenyl)propan-2-yl)thiazol-2-yl)-3-(2-(piperazin-1-yl)ethyl)urea], the IC50 amounted to 1660 nM in experiment [1] (Homo sapiens, HEK293) and 249 nM at ALPK1.
For the compound `COc1ccc(C(C)(C)c2csc(NC(=O)NCCOCCN3CCC(N)C3)n2)cc1` (stereo not shown) [Example A072, 1-(2-(2-(3-aminopyrrolidin-1-yl)ethoxy)ethyl)-3-(4-(2-(4-methoxyphenyl)propan-2-yl)thiazol-2-yl)urea], the half-maximal inhibitory concentration (IC50) in experiment [1] (Homo sapiens, HEK293) is 1450 nM; against ALPK1, 143 nM.
As for `CC(C)(c1ccc(Br)cc1)c1csc(NC(=O)NCc2ccc(N3CCN(CCO)CC3)nc2)n1` [Example A010, 1-(4-(2-(4-bromophenyl)propan-2-yl)thiazol-2-yl)-3-((6-(4-(2-hydroxyethyl)piperazin-1-yl)pyridin-3-yl)methyl)urea], the IC50 worked out at 3950 nM in experiment [1] (Homo sapiens, HEK293) and 200 nM on ALPK1.
As to `C#C[C@@](C)(c1ccc(F)cc1)c1csc(NC(=O)NCCS(N)(=O)=O)n1` [Example A285, 2-(3-(4-(2-(4-fluorophenyl)but-3-yn-2-yl)thiazol-2-yl)ureido)ethanesulfona-mide], the IC50 in experiment [1] (Homo sapiens, HEK293) came to 1360 nM; at ALPK1 it was 350 nM.
The like results for `COc1ccc(C(C)(C)c2csc(NC(=O)NC(C)c3ccc(N4CCNCC4)nc3)n2)cc1` (stereo not shown) [Example A001, 1-(4-(2-(4-methoxyphenyl)propan-2-yl)thiazol-2-yl)-3-(1-(6-(piperazin-1-yl)pyridin-3-yl)ethyl)urea] were, in that order, 670 nM and 58 nM.
